The values below come from patent US20230072421A1, “TARGETED RADIOPHARMACEUTICALS FOR THE DIAGNOSIS AND TREATMENT OF PROSTATE CANCER” (Bayer AS, priority 2019, published 2023).

Each structure is given as a SMILES string.

The subject of one assay is 22Rv1 cells. In words: Cell proliferation assay (CellTiter-Glo, 5-day exposure), 22Rv1. The settings on record: 22Rv1, 1000 cells/well, Th-227 labelled at 375 kBq/nmol, mean of 1 to 6 experiments. It is filed as cell-based. As to the method:
(§1) Inhibition of cell proliferation of Thorium-227 labeled PMSA SMOL ligands was tested different prostate cancer cell lines, namely 22Rv1, VCaP, C4-2 (all from ATCC, Manassas, Va., USA) and LNCaP (DMSZ, Braunschweig). Cells were seeded using the following conditions in 384 well plates (Corning) in 30 μl of growth media at 4000 cells/well for VCaP cells and 1000 cells/well for 22Rv1, C4-2 and LNCaP cells.
(§2) Cells were cultivated an incubator at 37° C. and 5% C02 over night. […] In sister plates cell viability at treatment start (d=0) was determined using CellTiter-Glo® assay (CTG, Promega, Madison, Wis., USA), by adding 30 μl per well CTG solution, incubation for 10 min and reading of Luminescence in a PheraStarFSX instrument (BMG Labtech). After a 5-day exposure in the presenced of test compounds, cell viability of treated or untreated control cells was determined again using CellTiter-Glo® assay (Promega, Madison, Wis., USA). […] The DRC software is a Biobook Spreadsheet that was developed by Bayer AG and Bayer Business Services on the IDBS E-Workbook Suite platform (IDBS: ID Business Solutions Ltd., Guildford, UK).
For orientation: In ATP-based viability assays light output follows the ATP content of the culture.

A further assay deals with C4-2 cells. In words: Cell proliferation assay (CellTiter-Glo, 5-day exposure), C4-2. It is filed as cell-based. To be noted: C4-2, 1000 cells/well, Th-227 labelled at 375 kBq/nmol, mean of 1 to 6 experiments. As to the method:
as §1, §2

In a further assay the test system is VCaP cells. As to the kind of experiment: Cell proliferation assay (CellTiter-Glo, 5-day exposure), VCaP. It is filed as cell-based. The settings on record: 4000 cells/well, Th-227 labelled at 375 kBq/nmol, mean of 1 to 6 experiments. As for the experimental part: as §1, §2
The target of assay [1] is T1, PSMA-expressing LNCaP cells (Homo sapiens, UniProt Q04609).
T1 construct: PSMA-expressing LNCaP cells; endogenous in cells; host or cells: LNCaP
T1 sequence (Q04609 whole entry): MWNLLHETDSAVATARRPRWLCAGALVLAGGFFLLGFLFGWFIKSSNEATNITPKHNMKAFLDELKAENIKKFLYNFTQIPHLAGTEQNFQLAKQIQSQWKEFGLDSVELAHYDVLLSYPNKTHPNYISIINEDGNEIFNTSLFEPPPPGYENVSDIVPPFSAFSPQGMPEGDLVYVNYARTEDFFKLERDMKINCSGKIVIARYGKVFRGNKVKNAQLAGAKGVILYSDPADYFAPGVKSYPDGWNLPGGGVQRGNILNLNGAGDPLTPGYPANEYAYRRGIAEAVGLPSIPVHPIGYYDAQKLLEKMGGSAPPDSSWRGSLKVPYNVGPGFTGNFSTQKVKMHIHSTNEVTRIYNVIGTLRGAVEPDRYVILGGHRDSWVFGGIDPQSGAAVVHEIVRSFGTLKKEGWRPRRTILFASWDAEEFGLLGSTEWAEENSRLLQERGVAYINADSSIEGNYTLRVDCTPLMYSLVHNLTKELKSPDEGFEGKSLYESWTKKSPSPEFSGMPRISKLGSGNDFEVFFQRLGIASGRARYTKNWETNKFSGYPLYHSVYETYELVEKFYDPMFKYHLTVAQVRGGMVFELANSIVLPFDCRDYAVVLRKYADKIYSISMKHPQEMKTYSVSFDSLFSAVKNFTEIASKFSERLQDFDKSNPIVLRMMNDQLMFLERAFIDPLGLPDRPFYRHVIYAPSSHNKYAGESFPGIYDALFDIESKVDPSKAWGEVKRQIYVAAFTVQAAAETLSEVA
In words: Binding competition assay against 3H-PSMA-617 on LNCaP cells. To be noted: LNCaP cells; for remaining activity at 0.01 µM / remaining activity at 0.1 µM: 10 nM 3H-PSMA-617, 2 h at 37° C., triplicates; for remaining activity at 0.01 µM: competing non-radiolabeled compound 10 nM; for remaining activity at 0.1 µM: competing non-radiolabeled compound 100 nM. The essentials:
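Compounds added to LNCaP cells in growth medium, 2 h at 37 °C, 5% CO2. After two ice-cold PBS washes, cells lysed in 0.3 M NaOH and bound radioactivity measured by liquid scintillation counting.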

With `Cc1cc(C(=O)NCCN(CCCN(CCNC(=O)c2cc(C)n(CC(=O)NCC3CCC(C(=O)NC(Cc4ccc5ccccc5c4)C(=O)NCCCCC(NC(=O)NC(CCC(=O)O)C(=O)O)C(=O)O)CC3)c(=O)c2[O-])CCNC(=O)c2cc(C)n(CC(=O)NCC3CCC(C(=O)NC(Cc4ccc5ccccc5c4)C(=O)NCCCCC(NC(=O)NC(CCC(=O)O)C(=O)O)C(=O)O)CC3)c(=O)c2[O-])CCNC(=O)c2cc(C)n(CC(=O)NCC3CCC(C(=O)NC(Cc4ccc5ccccc5c4)C(=O)NCCCCC(NC(=O)NC(CCC(=O)O)C(=O)O)C(=O)O)CC3)c(=O)c2[O-])c([O-])c(=O)n1CC(=O)O.[227Th+4]` (centres unmarked) [1-C trimer-227Th], the “Proliferation assay on cancer cell lines by TTCs Default Pivot #3 IC50 [kBq/mL] 22Rv1 1000cells 375kBq/nmol (mean)” value with 22Rv1 cells was 0.74 kBq/mL. Further, in the assay with C4-2 cells, the “Proliferation assay on cancer cell lines by TTCs Default Pivot #3 IC50 [kBq/mL] C4-2 1000cells 375kBq/nmol (mean)” value is listed as 2.24 kBq/mL. In the assay on VCaP cells, the “Proliferation assay on cancer cell lines by TTCs Default Pivot #3 IC50 [kBq/mL] VCap 4000cells 375kBq/nmol (mean)” value is 3.11 kBq/mL.

As to `CNc1cc(CC(NC(=O)C2CCC(CNC(=O)Cn3c(C)cc(C(=O)NCCN(CCCN(CCNC(=O)c4cc(C)n(CC(=O)O)c(=O)c4[O-])CCNC(=O)c4cc(C)n(CC(=O)NCC5CCC(C(=O)NC(Cc6cc(NC)c7ccccc7c6)C(=O)NCCCCC(NC(=O)NC(CCC(=O)O)C(=O)O)C(=O)O)CC5)c(=O)c4[O-])CCNC(=O)c4cc(C)n(CC(=O)O)c(=O)c4[O-])c([O-])c3=O)CC2)C(=O)NCCCCC(NC(=O)NC(CCC(=O)O)C(=O)O)C(=O)O)cc2ccccc12.[227Th+4]` (centres unmarked) [37-C dimer-227Th], the “Proliferation assay on cancer cell lines by TTCs Default Pivot #3 IC50 [kBq/mL] 22Rv1 1000cells 375kBq/nmol (mean)” value in the assay on 22Rv1 cells amounted to 1.06 kBq/mL. The “Proliferation assay on cancer cell lines by TTCs Default Pivot #3 IC50 [kBq/mL] C4-2 1000cells 375kBq/nmol (mean)” value with C4-2 cells was 0.48 kBq/mL. Also, in the assay on VCaP cells, the “Proliferation assay on cancer cell lines by TTCs Default Pivot #3 IC50 [kBq/mL] VCap 4000cells 375kBq/nmol (mean)” value was 1.53 kBq/mL.

Turning to `Cc1cc(C(=O)NCCN(CCCN(CCNC(=O)c2cc(C)n(CC(=O)O)c(=O)c2[O-])CCNC(=O)c2cc(C)n(CC(=O)NCC3CCC(C(=O)NC(Cc4cnc5ccccc5c4)C(=O)NCCCCC(NC(=O)NC(CCC(=O)O)C(=O)O)C(=O)O)CC3)c(=O)c2[O-])CCNC(=O)c2cc(C)n(CC(=O)O)c(=O)c2[O-])c([O-])c(=O)n1CC(=O)O.[227Th+4]` (centres unmarked) [Example 22-C monomer-227Th], the “Proliferation assay on cancer cell lines by TTCs Default Pivot #3 IC50 [kBq/mL] 22Rv1 1000cells 375kBq/nmol (mean)” value in the assay on 22Rv1 cells turned out to be 0.72 kBq/mL. In addition, in the assay with C4-2 cells, the “Proliferation assay on cancer cell lines by TTCs Default Pivot #3 IC50 [kBq/mL] C4-2 1000cells 375kBq/nmol (mean)” value is on record as 0.43 kBq/mL. The “Proliferation assay on cancer cell lines by TTCs Default Pivot #3 IC50 [kBq/mL] VCap 4000cells 375kBq/nmol (mean)” value in the assay with VCaP cells stood at 2.01 kBq/mL.

As a reminder, the remaining activity is the share of the control activity or signal that is left under treatment. A lower remaining activity goes with a large loss of activity. In assay [1], `NC[C@H]1CC[C@H](C(=O)N[C@@H](Cc2ccc3ncccc3c2)C(=O)NCCCC[C@H](NC(=O)N[C@@H](CCC(=O)O)C(=O)O)C(=O)O)CC1` [Example 48-A, (3S,10S,14S)-1-[trans-4-(aminomethyl)cyclohexyl]-1,4,12-trioxo-3-[(quinolin-6-yl)methyl]-2,5,11,13-tetraazahexadecane-10,14,16-tricarboxylic acid] returned a remaining activity at 0.01 µM of 73% and a remaining activity at 0.1 µM of 74%.

On to `NCc1ccc(C(=O)N[C@@H](Cc2ccc3ncccc3c2)C(=O)NCCCC[C@H](NC(=O)N[C@@H](CCC(=O)O)C(=O)O)C(=O)O)nc1` [Example 49-A, (3S,10S,14S)-1-[5-(aminomethyl)pyridin-2-yl]-1,4,12-trioxo-3-[(quinolin-6-yl)methyl]-2,5,11,13-tetraazahexadecane-10,14,16-tricarboxylic acid], for which, in assay [1], the remaining activity at 0.01 µM stood at 65% and the remaining activity at 0.1 µM was determined as 44%.

Consider `O=C(O)CC[C@H](NC(=O)N[C@@H](CCCCNC(=O)[C@H](Cc1ccc2ccccc2c1)NC(=O)[C@H]1CC[C@H](CNC(=O)CN2CCN(CC(=O)O)CCN(CC(=O)O)CCN(CC(=O)O)CC2)CC1)C(=O)O)C(=O)O` [PSMA-617, reference compound], for which the “Non-specific binding: remaining binding of 3H-PSMA-617 in the presence of unlabeled PSMA-617” value in assay [1] (unlabeled PSMA-617 at 5000 nM (500 fold excess)) is “below 5%”.
